In US20150315130A1, “New positive allosteric modulators of nicotinic acetylcholine receptor” (H. LUNDBECK A/S, priority 2012, published 2015):

Target: T1, human α7 receptor (Homo sapiens, UniProt P36544)
T1 construct: host or cells: rat GH4C1 cell line
Assay: α7 NNR flux assay (FDSS calcium flux, Calcium-4 dye, PAM mode with acetylcholine)
Format: cell-based
Conditions: human α7 receptor stably expressed in rat GH4C1 cells; enhancement of response to 20 μM acetylcholine; % modulation relative to PNU-120596 set to 100%
Description: The nicotinic acetylcholine receptor α7 is a calcium-permeable ion channel, whose activity can be measured by over expression in mammalian cells or oocytes. These two individual assays are described in Example 2 and 3, respectively.
In this version of the assay, the human α7 receptor is stably expressed in the rat GH4C1 cell line. The assay was used to identify positive allosteric modulators (PAMs) of the α7 receptor. Activation of the channel was measured by loading cells with the calcium-sensitive fluorescent dye Calcium-4 (Assay kit from Molecular Devices), and then measuring real-time changes in fluorescence upon treatment with test compounds.
The cell line ChanClone GH4C1-nAChRalphα7 from Genionics was seeded from frozen stock in 384-well plates in culture media 2-3 days before experiment to form an approximately 80% confluent layer on the day of experiment.
The cell culture was split into “22.5 cm×22.5 cm”-plates with approximately 100×10^3 cells/cm^2. After four days incubation in a humidified incubator at 37° C. and 5% CO2, it had grown to an 80-90% confluent layer, and the cells were harvested.
Two or three days before the experiment the cells were seeded in 384 well plates from Greiner bio-one (781946, CELLCOAT, Poly-D-Lysine, black, μClear).
The media was poured off and the plate washed with PBS and left to drain. 5 mL Trypsin was added, cells were washed and incubated (at room temperature) for about 10 seconds. Trypsin was poured of quickly and the cells were incubated for 2 minutes at 37° C. (if the cells were not already detached). Cells were resuspended in 10 mL culture media and transferred to 50 mL tubes.
The cell suspension was counted (NucleoCounter, total cell count) from the first plates to estimate the total cell number of the whole batch.
The cells were seeded in 384 well plates with 30 μL/well (30000 cells/well) while stirring the cell suspension or otherwise preventing the cells from precipitating.
The plates were incubated at room temperature for 30-45 minutes.
The plates were placed in incubator for two days (37° C. and 5% CO2).
The loading buffer was 5% v/v Calcium-4 Kit and 2.5 mM Probenecid in assay buffer.
Culture media were removed from the cell plates and 20 μL loading buffer was added in each well. The cell plates were placed in trays and incubated 90 minutes in the incubator (37° C.). Thereafter the plates were incubated 30 minutes at room temperature, still protected from light.
Now the cell plates were ready to run in the Functional Drug Screening System (FDSS).
The assay buffer was HBSS with 20 mM HEPES, pH 7.4 and 3 mM CaCl2.
200 nL 10 mM compound solution in DMSO was diluted in 50 μL assay buffer. The final test concentrations in the cell plates were 20-10-5-2.5-1.25-0.625-0.312-0.156-0.078-0.039 μM. Assay buffer and 3 μM PNU-120596 were used for control.
The agonist acetylcholine was added to a final concentration of 20 μM (˜E0100). In the FDSS7000 the Ex480-Em540 was measured with 1 second intervals. The baseline was made of 5 frames before addition of test compounds, and 95 frames more were made before addition of acetylcholine. The measurement stopped 30 frames after the 2nd addition. Raw data for each well were collected as “the maximum fluorescence count” in the interval 100-131 seconds and as “the average fluorescence count” in the interval 96-100 seconds. The positive allosteric modulation in the 2nd addition was the enhancement of agonist response with test compound compared to agonist alone.
Results were calculated as % modulation of test compound compared to the reference PNU-120596 set to 100%.

T1 sequence (P36544 23-502): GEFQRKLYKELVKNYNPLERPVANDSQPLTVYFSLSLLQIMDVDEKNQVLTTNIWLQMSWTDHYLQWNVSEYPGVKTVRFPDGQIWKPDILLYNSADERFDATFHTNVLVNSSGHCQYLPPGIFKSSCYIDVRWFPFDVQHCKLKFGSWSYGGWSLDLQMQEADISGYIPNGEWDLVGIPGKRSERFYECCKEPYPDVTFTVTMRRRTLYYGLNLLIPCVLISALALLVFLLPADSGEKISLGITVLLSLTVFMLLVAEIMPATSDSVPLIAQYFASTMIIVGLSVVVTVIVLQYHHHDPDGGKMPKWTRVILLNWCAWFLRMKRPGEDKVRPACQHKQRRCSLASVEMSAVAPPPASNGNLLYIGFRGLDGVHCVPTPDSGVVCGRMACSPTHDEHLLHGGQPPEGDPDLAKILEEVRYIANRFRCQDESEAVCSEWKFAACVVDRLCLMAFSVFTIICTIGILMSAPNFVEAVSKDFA

Row | EC50 | Compound
1 | 140 nM | O=C(N[C@@H](CO)c1ccc(OCCF)cc1)[C@H]1C[C@@H]1c1ccc(F)cc1 [Compound 25, (1S,2S)-2-(4-Fluoro-phenyl)-cyclopropanecarboxylic acid {(R)-1-[4-(2-fluoro-ethoxy)-phenyl]-2-hydroxy-ethyl}-amide]
2 | 33 nM | CCOc1ccc([C@H](COC)NC(=O)[C@H]2C[C@@H]2c2ccccc2)cc1 [Compound 17, (1S,2S)-2-Phenyl-cyclopropanecarboxylic acid [(R)-1-(4-ethoxy-phenyl)-2-methoxy-ethyl]-amide]
3 | 510 nM | COc1ccc([C@H](CO)NC(=O)[C@H]2C[C@@H]2c2ccc(F)cc2)cc1 [Compound 13, (1S,2S)-2-(4-Fluoro-phenyl)-cyclopropanecarboxylic acid [(R)-2-hydroxy-1-(4-methoxy-phenyl)-ethyl]-amide]
4 | 610 nM | COc1ccc([C@H](CO)NC(=O)[C@H]2C[C@@H]2c2ccccc2)c(F)c1 [Compound 9, (1S,2S)-2-Phenyl-cyclopropanecarboxylic acid [(R)-1-(2-fluoro-4-methoxy-phenyl)-2-hydroxy-ethyl]-amide]
5 | 3000 nM | COc1cccc([C@H](C)NC(=O)[C@H]2C[C@@H]2c2ccccc2)c1 [Compound 11, (1S,2S)-2-Phenyl-cyclopropanecarboxylic acid [(S)-1-(3-methoxy-phenyl)ethyl]-amide]
6 | 3600 nM | O=C(N[C@@H](CO)c1ccc(OC(F)(F)F)cc1)[C@H]1C[C@@H]1c1ccccc1 [Compound 7, (1S,2S)-2-Phenyl-cyclopropanecarboxylic acid [(R)-2-hydroxy-1-(4-trifluoromethoxy-phenyl)-ethyl]-amide]
7 | 1100 nM | COC[C@H](NC(=O)[C@H]1C[C@@H]1c1cccc(F)c1)c1ccc(OC)cc1 [Compound 21, (1S,2S)-2-(3-Fluoro-phenyl)-cyclopropanecarboxylic acid [(R)-2-methoxy-1-(4-methoxy-phenyl)-ethyl]-amide]
8 | 1500 nM | O=C(N[C@@H](CO)c1ccc(OCCF)cc1)[C@H]1C[C@@H]1c1ccccc1 [Compound 24, (1S,2S)-2-Phenyl-cyclopropanecarboxylic acid {(R)-1-[4-(2-fluoro-ethoxy)phenyl]-2-hydroxy-ethyl}-amide]
9 | 270 nM | CCOc1ccc([C@H](CO)NC(=O)[C@H]2C[C@@H]2c2ccccc2)cc1 [Compound 8, (1S,2S)-2-Phenyl-cyclopropanecarboxylic acid [(R)-1-(4-ethoxy-phenyl)-2-hydroxy-ethyl]-amide]
10 | 645 nM | COc1ccc([C@H](CO)NC(=O)[C@H]2C[C@@H]2c2ccccc2)cc1 [Compound 10, (1S,2S)-2-Phenyl-cyclopropanecarboxylic acid [(R)-2-hydroxy-1-(4-methoxy-phenyl)-ethyl]-amide]
11 | 4900 nM | O=C(N[C@@H](CCO)c1ccccc1)[C@H]1C[C@@H]1c1ccccc1 [Compound 2, (1S,2S)-2-Phenyl-cyclopropanecarboxylic acid ((S)-3-hydroxy-1-phenyl-propyl)-amide]
12 | 2400 nM | C[C@H](NC(=O)[C@H]1C[C@@H]1c1ccccc1)c1ccc(F)cc1 [Compound 3, (1S,2S)-2-Phenyl-cyclopropanecarboxylic acid [(S)-1-(4-fluoro-phenyl)-ethyl]-amide]
13 | 3900 nM | O=C(N[C@@H](CO)c1ccc(O)cc1)[C@H]1C[C@@H]1c1ccccc1 [Compound 18, (1S,2S)-2-Phenyl-cyclopropanecarboxylic acid [(R)-2-hydroxy-1-(4-hydroxy-phenyl)-ethyl]-amide]
14 | 1200 nM | COc1ccc([C@H](CO)NC(=O)[C@H]2C[C@@H]2c2ccccc2F)cc1 [Compound 15, (1S,2S)-2-(2-Fluoro-phenyl)-cyclopropanecarboxylic acid [(R)-2-hydroxy-1-(4-methoxy-phenyl)-ethyl]-amide]
15 | 3600 nM | COC[C@H](NC(=O)[C@H]1C[C@@H]1c1ccccc1)c1ccc(O)cc1 [Compound 19, (1S,2S)-2-Phenyl-cyclopropanecarboxylic acid [(R)-1-(4-hydroxy-phenyl)-2-methoxy-ethyl]-amide]
16 | 3800 nM | Cc1ccc([C@H](C)NC(=O)[C@H]2C[C@@H]2c2ccccc2)cc1 [Compound 5, (1S,2S)-2-Phenyl-cyclopropanecarboxylic acid ((S)-1-p-tolyl-ethyl)-amide]
17 | 1900 nM | C[C@H](NC(=O)[C@H]1C[C@@H]1c1ccccc1)c1ccccc1F [Compound 12, (1S,2S)-2-Phenyl-cyclopropanecarboxylic acid [(S)-1-(2-fluoro-phenyl)-ethyl]-amide]
18 | 160 nM | COC[C@H](NC(=O)[C@H]1C[C@@H]1c1ccccc1)c1ccc(OC)cc1 [Compound 16, (1S,2S)-2-Phenyl-cyclopropanecarboxylic acid [(R)-2-methoxy-1-(4-methoxy-phenyl)-ethyl]-amide]
19 | 3100 nM | C[C@H](NC(=O)[C@H]1C[C@@H]1c1ccccc1)c1cccc(F)c1 [Compound 6, (1S,2S)-2-Phenyl-cyclopropanecarboxylic acid [(S)-1-(3-fluoro-phenyl)-ethyl]-amide]
20 | 3800 nM | O=C(N[C@@H](CO)c1ccc(O)cc1)[C@H]1C[C@@H]1c1cccc(F)c1 [Compound 23, (1S,2S)-2-(3-Fluoro-phenyl)-cyclopropanecarboxylic acid [(R)-2-hydroxy-1-(4-hydroxy-phenyl)-ethyl]-amide]
21 | 1500 nM | COc1ccc([C@H](C)NC(=O)[C@H]2C[C@@H]2c2ccccc2)cc1 [Compound 1, (1S,2S)-2-Phenyl-cyclopropanecarboxylic acid [(S)-1-(4-methoxy-phenyl)ethyl]-amide]
22 | 1200 nM | COc1ccc([C@H](CO)NC(=O)[C@H]2C[C@@H]2c2cccc(F)c2)cc1 [Compound 4, (1S,2S)-2-(3-Fluoro-phenyl)-cyclopropanecarboxylic acid [(R)-2-hydroxy-1-(4-methoxy-phenyl)-ethyl]-amide]
23 | 3200 nM | O=C(N[C@@H](CO)c1ccc(O)cc1)[C@H]1C[C@@H]1c1ccc(F)cc1 [Compound 22, (1S,2S)-2-(4-Fluoro-phenyl)-cyclopropanecarboxylic acid [(R)-2-hydroxy-1-(4-hydroxy-phenyl)-ethyl]-amide]
24 | 84 nM | COC[C@H](NC(=O)[C@H]1C[C@@H]1c1ccc(F)cc1)c1ccc(OC)cc1 [Compound 20, (1S,2S)-2-(4-Fluoro-phenyl)-cyclopropanecarboxylic acid [(R)-2-methoxy-1-(4-methoxy-phenyl)-ethyl]-amide]
25 | 400 nM | COc1ccc([C@H](CO)NC(=O)[C@H]2C[C@@H]2c2cccc(F)c2)cc1 [Compound 14, (1S,2S)-2-(3-Fluoro-phenyl)-cyclopropanecarboxylic acid [(R)-2-hydroxy-1-(4-methoxy-phenyl)-ethyl]-amide]
